Results published in patent US20240336602A1 (Katholieke Universiteit Leuven, priority 2020, published 2024).

These molecules were tested against T1, mouse TRPM3a2 (mTRPM3) ion channel (Mus musculus, UniProt J9SQF3) (assay: TRPM3 ion channel driven Ca2+ uptake, Fluo-4 AM assay (PS-stimulated, overexpressing flip-in HEK293 cells)). Settings: PS (50 μM) stimulated Ca2+ influx, HEK293, cpds 300-399.
T1 construct: expressed in transfected cells; host or cells: flip-in HEK293
T1 sequence (J9SQF3 1-1709 isoform J9SQF3-12): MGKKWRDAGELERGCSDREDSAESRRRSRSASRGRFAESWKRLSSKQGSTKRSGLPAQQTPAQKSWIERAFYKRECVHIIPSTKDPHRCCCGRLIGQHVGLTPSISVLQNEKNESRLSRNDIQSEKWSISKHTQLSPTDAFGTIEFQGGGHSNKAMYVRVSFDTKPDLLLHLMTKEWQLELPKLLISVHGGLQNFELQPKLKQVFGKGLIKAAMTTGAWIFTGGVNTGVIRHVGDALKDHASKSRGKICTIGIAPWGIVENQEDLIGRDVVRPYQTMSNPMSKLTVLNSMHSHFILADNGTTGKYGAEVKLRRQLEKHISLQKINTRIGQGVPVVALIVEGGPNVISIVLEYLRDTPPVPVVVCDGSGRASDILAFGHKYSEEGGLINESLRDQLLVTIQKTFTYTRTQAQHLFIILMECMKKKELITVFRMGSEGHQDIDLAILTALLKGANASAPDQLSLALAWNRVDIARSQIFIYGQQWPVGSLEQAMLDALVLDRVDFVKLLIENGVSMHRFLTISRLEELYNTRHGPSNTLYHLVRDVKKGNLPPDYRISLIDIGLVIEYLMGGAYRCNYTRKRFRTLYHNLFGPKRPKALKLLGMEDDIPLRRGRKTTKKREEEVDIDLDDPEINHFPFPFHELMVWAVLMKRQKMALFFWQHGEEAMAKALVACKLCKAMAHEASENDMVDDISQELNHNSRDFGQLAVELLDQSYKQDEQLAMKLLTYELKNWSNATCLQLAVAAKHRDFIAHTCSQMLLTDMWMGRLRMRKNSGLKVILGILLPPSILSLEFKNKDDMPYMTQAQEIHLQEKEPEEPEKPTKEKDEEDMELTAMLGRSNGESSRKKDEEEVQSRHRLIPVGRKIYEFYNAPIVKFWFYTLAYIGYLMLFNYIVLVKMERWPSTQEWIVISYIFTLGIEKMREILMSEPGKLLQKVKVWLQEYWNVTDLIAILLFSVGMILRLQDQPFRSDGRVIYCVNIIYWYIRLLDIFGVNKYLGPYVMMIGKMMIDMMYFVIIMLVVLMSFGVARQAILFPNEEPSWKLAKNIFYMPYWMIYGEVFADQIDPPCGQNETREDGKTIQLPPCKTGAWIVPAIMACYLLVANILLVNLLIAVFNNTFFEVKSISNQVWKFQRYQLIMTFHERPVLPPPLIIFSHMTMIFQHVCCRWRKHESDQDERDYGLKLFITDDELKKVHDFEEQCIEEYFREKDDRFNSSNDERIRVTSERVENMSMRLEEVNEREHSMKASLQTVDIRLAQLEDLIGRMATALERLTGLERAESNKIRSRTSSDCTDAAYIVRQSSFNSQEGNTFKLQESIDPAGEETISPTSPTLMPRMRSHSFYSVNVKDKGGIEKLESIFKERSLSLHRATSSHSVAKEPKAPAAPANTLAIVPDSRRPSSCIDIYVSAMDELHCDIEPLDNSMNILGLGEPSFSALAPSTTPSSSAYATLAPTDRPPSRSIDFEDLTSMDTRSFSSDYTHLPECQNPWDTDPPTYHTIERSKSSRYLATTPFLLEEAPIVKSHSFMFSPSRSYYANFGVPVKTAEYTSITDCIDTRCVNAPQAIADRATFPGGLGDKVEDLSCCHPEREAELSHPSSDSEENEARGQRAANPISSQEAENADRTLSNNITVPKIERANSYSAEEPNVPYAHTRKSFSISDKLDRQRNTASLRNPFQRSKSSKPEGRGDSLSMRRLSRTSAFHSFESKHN
Assay type: cell-based
How it was run: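 Flip-in HEK293 cells overexpressing mTRPM3α2, loaded with Fluo-4 AM, were added to wells with compound plus 50 μM pregnenolone sulfate in Ca2+-containing Krebs buffer and read immediately (ex 485/em 535 nm). Percent inhibition was scaled between PS-plus-vehicle and positive-control-inhibitor signals.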
In the case of Cc1oc2ccc(OCc3cccnc3O)c(F)c2c1C(=O)NC1(CO)CCOCC1 [compound 329, 4-fluoro-N-(4-(hydroxymethyl)tetrahydro-2H-pyran-4-yl)-2-methyl-5-((2-oxo-1,2-dihydropyridin-3-yl)methoxy)benzofuran-3-carboxamide], the IC50 is reported as 1000 to 20000 nM. Cc1ncsc1COc1ccc2oc(C)c(C(=O)NC3CCN(CCO)C3=O)c2c1F (single isomer, unassigned) [326 - En 1] showed an IC50 of at most 1000 nM. With CCOc1ncccc1COc1ccc2oc(C)c(C(=O)NC3CCN(CCO)C3=O)c2c1 (single isomer, unassigned) [348 - En 1] the IC50 was at most 1000 nM. With Cc1ncsc1COc1cc2c(C(=O)NC3CCN(CCO)C3=O)c(C)oc2cc1F (single isomer, unassigned) [360 - En 1] the IC50 was at most 1000 nM. Cc1ncsc1COc1ccc2oc(C)c(C(=O)NC(C)C(=O)NCCO)c2c1 (single isomer, unassigned) [397 - En 1] was tested, and the IC50 was at most 1000 nM. Cc1ncc(C(C)Oc2ccc3oc(C)c(C(=O)NC(CO)C(N)=O)c3c2)s1 (single isomer, unassigned) [395 - Dia 1] gave an IC50 of at most 1000 nM. In the case of Cc1oc2ccc(OCc3ccnn3CC(F)F)cc2c1C(=O)NC1(CO)CCNC1=O (single isomer, unassigned) [333 - En 1], the IC50 is reported as at most 1000 nM.

Same assay, conditions: PS (50 μM) stimulated, cpd 001-199
For Cc1ncsc1COc1ccc2oc(C)c(C(=O)NC3CCN(C)CC3(F)F)c2c1 (single isomer, unassigned) [110 - En 1], the IC50 was at most 1000 nM. For Cc1oc2ccc(OCc3ccc(C(F)(F)F)nc3)cc2c1C(=O)NC1CCNC1=O (centres unmarked) [cpd 066, 2-methyl-N-(2-oxopyrrolidin-3-yl)-5-((6-(trifluoromethyl)pyridin-3-yl)methoxy)benzofuran-3-carboxamide], the IC50 was 1000 to 20000 nM. In the case of Cc1oc2ccc(OCc3cccs3)cc2c1C(=O)O [cpd 012, 2-methyl-5-(thiophen-2-ylmethoxy)benzofuran-3-carboxylic acid], the IC50 is reported as 1000 to 20000 nM. Molecule Cc1ncsc1COc1ccc2oc(C)c(C(=O)NC3CC4(CNC4)C3)c2c1 [cpd 190, 2-methyl-5-((4-methylthiazol-5-yl)methoxy)-N-(2-azaspiro[3.3]heptan-6-yl)benzofuran-3-carboxamide] has an IC50 of 1000 to 20000 nM. In the case of COc1cccc(COc2ccc3oc(C)c(C(=O)NC4CCN(C(=O)OC(C)(C)C)CC4(F)F)c3c2)n1 (centres unmarked) [cpd 091, tert-butyl 3,3-difluoro-4-(5-((6-methoxypyridin-2-yl)methoxy)-2-methylbenzofuran-3-carbox-amido)piperidine-1-carboxylate], the IC50 is reported as 1000 to 20000 nM. Cc1oc2ccc(OCc3ccccn3)cc2c1C(=O)NC1CCN(C)CC1 [cpd 039, 2-methyl-N-(1-methylpiperidin-4-yl)-5-(pyridin-2-ylmethoxy)benzofuran-3-carboxamide] was tested, and the IC50 was 1000 to 20000 nM. For Cc1oc2ccc(OCc3ccn(C)n3)cc2c1C(=O)O [cpd 009, 2-methyl-5-((1-methyl-1H-pyrazol-3-yl)methoxy)benzofuran-3-carboxylic acid], the IC50 was 1000 to 20000 nM. For Cc1oc2ccc(OCc3cnn(C)c3)cc2c1C(=O)O [cpd 010, 2-methyl-5-((1-methyl-1H-pyrazol-4-yl)methoxy)benzofuran-3-carboxylic acid], the IC50 was 1000 to 20000 nM. Molecule Cc1oc2c(C)cc(OCc3cccnc3C(F)(F)F)cc2c1C(=O)NC1CCNCC1(F)F (single isomer, unassigned) [183 - En 2, N-(3,3-difluoropiperidin-4-yl)-2,7-dimethyl-5-((2-(trifluoromethyl)pyridin-3-yl)methoxy)benzofuran-3-carboxamide] has an IC50 of at least 20000 nM. In the case of Cc1oc2ccc(OCc3cncnc3)cc2c1C(=O)NC1CCNC1=O (centres unmarked) [cpd 032, 2-methyl-N-(2-oxopyrrolidin-3-yl)-5-(pyrimidin-5-ylmethoxy)benzofuran-3-carboxamide], the IC50 is reported as 1000 to 20000 nM. Cc1ncsc1COc1ccc2oc(C)c(C(=O)NC3CN(C)CC(F)(F)C3)c2c1 (single isomer, unassigned) [163 - En 1] gave an IC50 of at most 1000 nM. Cc1oc2ccc(OC(C)c3ccncc3)cc2c1C(=O)NC1CCN(C)CC1 (centres unmarked) [cpd 045, 2-methyl-N-(1-methylpiperidin-4-yl)-5-(1-(pyridin-4-yl)ethoxy)benzofuran-3-carboxamide] gave an IC50 of 1000 to 20000 nM. Molecule Cc1ccc(COc2ccc3oc(C)c(C(=O)NC4CCNC4=O)c3c2)c(C)n1 (centres unmarked) [cpd 044, 5-((2,6-dimethylpyridin-3-yl)methoxy)-2-methyl-N-(2-oxopyrrolidin-3-yl)benzofuran-3-carboxamide] has an IC50 of 1000 to 20000 nM.

Same assay, conditions: PS (50 μM) stimulated, cpds. 400-499
Molecule Cc1ncccc1COc1ccc2oc(C)c(C(=O)NC(C)(CO)C(N)=O)c2c1 (single isomer, unassigned) [461 - En 1] has an IC50 of at most 1000 nM. Molecule Cc1ncc(COc2ccc3oc(C)c(C(=O)NC(CN(C)C)C(N)=O)c3c2)s1 (single isomer, unassigned) [449 - En 1] has an IC50 of at most 1000 nM. COc1ncccc1COc1ccc2oc(C)c(C(=O)NC3CCN(CCO)C3=O)c2c1 (single isomer, unassigned) [409 - En 1] showed an IC50 of at most 1000 nM. Work on Cc1oc2ccc(OCc3ccnn3CC(F)F)cc2c1C(=O)NC(CO)C(N)=O (single isomer, unassigned) [456 - En 1] yielded an IC50 of at most 1000 nM. In the case of Cc1oc2ccc(OCc3ccccn3)cc2c1C(=O)NC1CCN(CCO)C1=O (single isomer, unassigned) [406 - En 1], the IC50 is reported as at most 1000 nM.

Same assay, conditions: PS (50 μM) stimulated, cpds. 500-599
With Cc1oc2ccc(OCc3nccn3C)cc2c1C(=O)NC1(CO)COC1 [cpd 523, N-(3-(hydroxymethyl)oxetan-3-yl)-2-methyl-5-((1-methyl-1H-imidazol-2-yl)methoxy)benzofuran-3-carboxamide] the IC50 was 1000 to 20000 nM. Work on Cc1ncsc1COc1ccc2oc(C)c(C(=O)NC3(CO)CCNC3=O)c2c1 (single isomer, unassigned) [518 - En 1] yielded an IC50 of at most 1000 nM. For Cc1ncccc1COc1ccc2oc(C)c(C(=O)NC3(C(N)=O)CCOC3)c2c1 (single isomer, unassigned) [591 - En 2], the IC50 was at most 1000 nM.

Same assay, conditions: PS (50 μM) stimulated, cpds. 600-666
Cc1oc2ccc(OCc3ccnc(O)c3)cc2c1C(=O)NC1(CO)CCOCC1 [cpd 628, N-(4-(hydroxymethyl)tetrahydro-2H-pyran-4-yl)-5-((2-hydroxypyridin-4-yl)methoxy)-2-methylbenzofuran-3-carboxamide] gave an IC50 of 1000 to 20000 nM. For Cc1oc2ccc(OCc3cncn3C)cc2c1C(=O)NC1(CO)CCOCC1 [cpd 607, N-(4-(hydroxymethyl)tetrahydro-2H-pyran-4-yl)-2-methyl-5-((1-methyl-1H-imidazol-5-yl)methoxy)benzofuran-3-carboxamide], the IC50 was 1000 to 20000 nM. Work on Cc1oc2ccc(OCc3nccn3C)cc2c1C(=O)NC1COCC1O (centres unmarked) [654 - En 2] yielded an IC50 of 1000 to 20000 nM. Cc1nccc(COc2ccc3oc(C)c(C(=O)NC4(CO)CCOCC4)c3c2)n1 [cpd 612, N-(4-(hydroxymethyl)tetrahydro-2H-pyran-4-yl)-2-methyl-5-((2-methylpyrimidin-4-yl)methoxy)benzofuran-3-carboxamide] gave an IC50 of 1000 to 20000 nM. COc1ccc(COc2ccc3oc(C)c(C(=O)NC4(CO)CCOCC4)c3c2)cn1 [cpd 632, N-(4-(hydroxymethyl)tetrahydro-2H-pyran-4-yl)-5-((6-methoxypyridin-3-yl)methoxy)-2-methylbenzofuran-3-carboxamide] was tested, and the IC50 was 1000 to 20000 nM.

Same assay, conditions: PS (50 μM) stimulated, cpds. 667-751
For Cc1ncsc1COc1ccc2oc(C)c(C(=O)NC(Cn3cncn3)C(N)=O)c2c1 (single isomer, unassigned) [729 - En 2], the IC50 was at most 1000 nM. Molecule COc1ncccc1COc1ccc2oc(C)c(C(=O)NC(C)(CO)C(N)=O)c2c1 (single isomer, unassigned) [720 - En 1] has an IC50 of at most 1000 nM.
